In brackets after ≈: the same amount, converted by molar mass. Where two headings read alike, the source gives them in different places.
Assays:
[1] = tested on: B16-F1; assay: SRB cell growth inhibition (cytotoxicity) assay; assay type: cell-based, mouse; details: Mus musculus
Text: (§1) The only compounds which belong to the invention are the ones falling under the scope of formula (XI).

[2] = tested on: A375; assay: SRB cell growth inhibition (cytotoxicity) assay; assay type: cell-based, human; details: Homo sapiens
[3] = tested on: WM-164; assay: SRB cell growth inhibition (cytotoxicity) assay; assay type: cell-based, human; details: Homo sapiens
[4] = tested on: PC-3; assay: cells; details: Homo sapiens, PC-3, 96 h, read-out: IC50 ± SEM (nM), PC-3
Text: as §1
Cells were stained with SRB solution.
Cells. […] Cells between the third and fifth passages were used for experiments.
Cell growth inhibition studies. […] Cells were stained with sulphorhodamine B (SRB) solution.

[5] = tested on: OVCAR-8; assay: SRB growth inhibition, MDR model parent line; assay type: cell-based, human; details: Homo sapiens
[6] = tested on: Bovine brain tubulin; assay: In vitro tubulin polymerization assay; assay type: biochemical; details: 10 µM
Text: (§2) In Vitro Tubulin Polymerization Assay.
as §2
In vitro microtubule polymerization assay.

[7] = tested on: tubulin (colchicine, vinblastine and paclitaxel binding sites); assay: MS competitive binding assay
Text: MS competition binding assay. […] Each reaction was run in triplicate.

[8] = tested on: A375 human melanoma xenograft; assay: In vivo antitumor efficacy, A375 melanoma xenograft; set-up: species or system mouse; details: 2k 15 mg/kg i.p.
Procedure: DTIC at 60 mg/kg was used as a positive control again.
(§3) PC-3 and A375 tumor xenograft studies.
(§4) In vivo antitumor activity [tumor growth inhibition (% T/C), tumor growth delay (T-C value), and tumor cell kill (total log cell kill)].

[9] = tested on: PC-3 prostate tumor xenograft; assay: In vivo antitumor efficacy, PC-3 xenograft; set-up: species or system mouse; details: control 680 mm^3
Text: as §3, §4

[10] = tested on: PC-3 cells; assay: In vivo drug resistance study (cells dissociated from PC-3 xenografts); assay type: cell-based; details: Homo sapiens
[11] = for CL (mL/min/kg), systemic clearance / Vss (L/kg), volume of distribution: […] (1h, 2r), 5 mg/kg (5Ha, 5Hc)
[12] = tested on: DU 145; assay: cells; details: Homo sapiens, DU-145, 96 h
[13] = tested on: LNCaP; assay: cells; details: Homo sapiens, 96 h, read-out: IC50 ± SEM (nM), LNCaP
[14] = tested on: PPC-1; assay: cells; details: Homo sapiens, PPC-1, 96 h, read-out: IC50 ± SEM (nM), PPC-1
[15] = in vivo; details: mouse, ip
[16] = Rotarod test (in vivo neurotoxicity); details: mouse
[17] = tested on: NCI/ADR-RES; assay: SRB growth inhibition, P-gp over-expressing MDR line; assay type: cell-based, human
[18] = tested on: melanoma cell lines (A375, WM-164, B16-F1) and prostate cancer cell lines (LNCaP, DU 145, PC-3, PPC-1); assay: SRB cytotoxicity, melanoma and prostate cell panel (averages); assay type: cell-based; details: Prostate cell
Text: as §1

[19] = 90 min
[20] = in vivo; details: rat, plasma, po, 10 mg/kg
[21] = tested on: MDA-MB-435; assay: SRB growth inhibition, sensitive parent melanoma line; assay type: cell-based; details: Homo sapiens
[22] = tested on: MDA-MB-435/LCC6MDR1; assay: SRB growth inhibition, multidrug-resistant melanoma line; assay type: cell-based
[23] = in vivo; details: mouse, po, 20 mg/kg
[24] = tested on: MRP; assay: Growth inhibition in MRP-mediated resistant cells (Table 14B); assay type: cell-based; details: n=3
[25] = tested on: cancer and MDR cell lines with different resistance mechanisms; assay: Growth inhibition in other cancer and MDR cell lines of Table 14B; assay type: cell-based; details: n=3
[26] = tested on: WM-164 melanoma cells; assay: Microtubule imaging (immunofluorescence); assay type: cell-based, human; details: 18 h treatment
Text: Primary antibody for tubulin and fluorescence-labeled secondary antibody were subsequently added to the cells. Cell nuclei were stained by DAPI. Whole Cell Stain Green was also applied to all cells. All images were acquired with an Olympus IX71 inverted fluorescence microscope (Olympus Corp., Tokyo, Japan) with overlays from separate images of tubulin (red), nuclei (blue), and whole cells (green).

[27] = tested on: PC-3/TxR tumors; details: PC-3/TxR xenograft, IV 20mpk, day 1 and 9
[28] = B16-F1, read-out: IC50 ± SEM (nM) (n=3), B16-F1, Table 14A
[29] = B16-F1 melanoma cells, 48 h, SRB, read-out: IC50 ± SEM (nM) B16-F1
[30] = A-375, read-out: IC50 ± SEM (nM) (n=3), A375, Table 14A
[31] = A-375, A375 melanoma cells, 48 h, SRB, read-out: IC50 ± SEM (nM) A375
[32] = MDA-MB-435, read-out: IC50 ± SEM (nM) (n=3), MDA-MB-435, sensitive parent melanoma cell line
[33] = MDA-MB-435/LCC6 MDR1, read-out: IC50 ± SEM (nM) (n=3), MDA-MB-435/LCC6MDR1, multidrug-resistant melanoma cell line
[34] = read-out: IC50 ± SEM (nM) Du 145
[35] = WM164, read-out: IC50 ± SEM (nM) (n=3), WM-164, Table 14A

COc1cc(C(=O)c2csc(-c3ccccc3)n2)cc(OC)c1OC [1h, (2-Phenyl-thiazol-4-yl)-(3,4,5-trimethoxy-phenyl)-methanone]
IC50 ([1]; B16-F1, SRB assay, Tables 1, 2, 3, 5B, 5C, read-out: IC50 ± SEM (nM), B16-F1): 55 ± 5 nM
IC50 ([2]; A-375, 96 h, SRB assay, 96 h, Tables 1, 2, 3, 5B, 5C, read-out: IC50 ± SEM (nM), A375): 28 ± 5 nM
IC50 ([3]; WM164, 96 h, SRB assay, 96 h, Table 2, read-out: IC50 ± SEM (nM), WM-164): 64 ± 4 nM
IC50 [4]: 21 ± 1 nM
IC50 ([5]; OVCAR-8, Table 5A, read-out: IC50 (nM), OVCAR-8): 35 ± 2 nM
inhibited tubulin polymerization ([6]; 15 min, Figure 28B): 90%
tubulin polymerization inhibited ([6]; 20 min incubation, compared to vehicle): 47%
competition for tubulin binding sites [7]: specifically competed with colchicine binding to tubulin
% T/C ([8]; A375, 1h 20 mg/kg): 28%
tumor volume ([8]; A375, nude mice, 1h 20 mg/kg, 34 days, control 2183 mm^3): 775 mm^3
Tumor volume by day 21 ([9]; PC-3, 5 mg/kg i.p.): 370 mm^3
Tumor volume by day 21 ([9]; PC-3, 15 mg/kg i.p.): 176 mm^3
IC50 ([10]; PC-3, PC-3 cells from ATCC): 29.1 ± 1.1 nM
IC50 ([10]; PC-3, dissociated cells from 1h treated tumors (15 mg/kg, 21 days)): 30.4 ± 0.5 nM
IC50 ([10]; PC-3, dissociated cells from vehicle treated tumors): 29.1 ± 0.8 nM
RatPK_IV5mgk_Cl ([11]; rat, IV, 2.5mpk): 7.7 (2.5mpk) mL/min/kg
CL (mL/min/kg), systemic clearance ([11]; rat, IV): 7.7 ± 1.0 mL/min/kg
Vss (L/kg), volume of distribution ([11]; rat, IV): 4.9 ± 1.9 L/kg
volume of distribution ([11]; rats, […] iv): 7.6 L/kg
clearance ([11]; rats, […] iv, Table 22): 6 mL/min/kg
IC50 ([12]; read-out: IC50 ± SEM (nM), DU 145): 71 ± 4 nM
IC50 [13]: 28 ± 4 nM
IC50 [14]: 43 ± 5 nM
MTD at 96 h [15]: ≥ 30 mg/kg
time on the rotating rod versus vehicle group [16]: no significant difference

COc1cc(C(=O)c2csc(-c3ccc(CN)cc3)n2)cc(OC)c1OC.Cl [2r, (2-(4-(Aminomethyl)phenyl)thiazol-4-yl)(3,4,5-trimethoxyphenyl)methanone hydrochloride]
Resistance factor ([17]; NCI/ADR-RES vs OVCAR-8, 5760 min): 0.4
IC50 ([18]; read-out: IC50 range over tested melanoma and prostate cell lines): 13 to 80 nM
solubility in PBS ([19]; PBS pH 7.4, Figure 18): over 35 µg/mL
CL (mL/min/kg), systemic clearance ([11]; rat, IV): 22 ± 13 mL/min/kg
Vss (L/kg), volume of distribution ([11]; rat, IV): 0.33 ± 025 L/kg
bioavailability [20]: 0.2%

COc1ccc(-c2nc(C(=O)c3ccc(F)cc3)cn2S(=O)(=O)c2ccccc2)cc1 [11cb, (4-fluorophenyl)(2-(4-methoxyphenyl)-1-(phenylsulfonyl)-1H-imidazol-4-yl)methanone]
IC50 [1, 28]: 71 ± 8 nM
IC50 [1, 29]: 71 ± 8 nM
IC50 [2, 30]: 36 ± 5 nM
IC50 [2, 31]: 36 ± 5 nM
IC50 [4]: 33 ± 2 nM
IC50 [21, 32]: 38 nM
IC50 [22, 33]: 30 nM
IC50 ([18]; read-out: IC50 (average over cell lines)): 43 nM
IC50 [12, 34]: 52 ± 3 nM
IC50 [13]: 31 ± 2 nM
IC50 [14]: 32 ± 0.7 nM

O=C(c1ccc(F)cc1)c1cn(S(=O)(=O)c2ccccc2)c(-c2ccc(Cl)cc2)n1 [11fb, (2-(4-chlorophenyl)-1-(phenylsulfonyl)-1H-imidazol-4-yl)(4-fluorophenyl)methanone]
IC50 [1, 28]: 107 ± 12 nM
IC50 [1, 29]: 107 ± 12 nM
IC50 [2, 30]: 88 ± 9 nM
IC50 [2, 31]: 88 ± 9 nM
IC50 [3, 35]: 74 ± 8 nM
IC50 ([3]; WM164 melanoma cells, 48 h, SRB, read-out: IC50 ± SEM (nM) WM164): 70 ± 6 nM
IC50 [4]: 76 ± 2 nM
IC50 [21, 32]: 50 nM
IC50 [22, 33]: 35 nM
IC50 [12, 34]: 64 ± 1 nM
IC50 [13]: 48 ± 1 nM
IC50 [14]: 54 ± 1 nM

COc1cc(C(=O)c2c[nH]c(-c3ccc(Cl)cc3)n2)cc(OC)c1OC [12fa, (2-(4-Chlorophenyl)-1H-imidazol-4-yl)(3,4,5-trimethoxyphenyl)methanone]
IC50 [4]: 35 ± 1 nM
IC50 ([5]; OVCAR-8 cells, read-out: IC50 ± SEM (nM) OVCAR-8): 47 nM
Solubility ([19]; aqueous solubility): 12 µg/mL (≈ 32.2 µM)
IC50 [12, 34]: 36 ± 0.4 nM
IC50 [13]: 24 ± 1 nM
IC50 [14]: 26 ± 0.2 nM
AUC [20]: 3630 ng·h/mL
Cmax [20]: 1110 ng/mL
AUC [23]: 3350 ng·h/mL
Cmax [23]: 2590 ng/mL

COc1ccc(S(=O)(=O)Nc2cccnc2Nc2ccc(O)cc2)cc1 [ABT-751]
IC50 ([2]; A-375, Table 14B, n=3, read-out: IC50 ± SEM (nmol/L) A375): 685 ± 108 nM
IC50 [3, 35]: 661 ± 56 nM
IC50 ([3]; WM164, Table 14B, n=3, read-out: IC50 ± SEM (nmol/L) WM-164): 661 ± 56 nM
IC50 ([5]; OVCAR-8, parental cell line, n=3, read-out: IC50 ± SEM (nmol/L) OVCAR-8): 785 ± 17 nM
IC50 ([17]; Homo sapiens, NCI/ADR-RES, MDR1 overexpressed, n=3, read-out: IC50 ± SEM (nmol/L) NCI/ADR-RES): 864 ± 42 nmol/L
IC50 ([21]; MDA-MB-435, parental cell line, n=3, read-out: IC50 ± SEM (nmol/L) MDA-MB-435): 417 ± 23 nM
IC50 ([22]; MDA-MB-435/LCC6 MDR1, MDR1 overexpressed, n=3, read-out: IC50 ± SEM (nmol/L) MDA-MB-435/LCC6MDR1): 577 ± 31 nM
IC50 ([24]; MRP1 overexpressed, read-out: IC50 ± SEM (nmol/L) HEK293-MRP1): 717 ± 28 nmol/L
IC50 ([24]; MRP2 overexpressed, read-out: IC50 ± SEM (nmol/L) HEK293-MRP2): 747 ± 7 nmol/L
IC50 ([25]; A375MA2 cells, read-out: IC50 ± SEM (nmol/L) A375MA2): 265 ± 36 nmol/L
IC50 ([25]; Homo sapiens, HEK293-pcDNA3.1 parental cell line, read-out: IC50 ± SEM (nmol/L) HEK293 - pcDNA3.1): 645 ± 153 nmol/L
effect on microtubules [26]: microtubule fragmentation

CC(=O)O[C@@]12CO[C@@H]1C[C@H](O)[C@@]1(C)C(=O)[C@H](O)C3=C(C)[C@@H](OC(=O)[C@H](O)[C@@H](NC(=O)OC(C)(C)C)c4ccccc4)C[C@@](O)([C@@H](OC(=O)c4ccccc4)[C@H]21)C3(C)C [Dooetaxel]
TGI (%) ([27]; end point day 19): 56%
Tumor size (mm^3) End ([27]; end point day 19): 999 ± 905 mm^3
Tumor size (mm^3) Start ([27]; start): 170 ± 86 mm^3

Source: EP2608671B1, “COMPOUNDS FOR TREATMENT OF CANCER” (Gtx, Inc., priority 2010, dated 2012)
